Read-outs that look alike come from different tables or passages of the source.

Data set [1] concerns lung cancer cells. Also on record: method as in PMID 26479318, PMID 21725807. As to conditions: general culture conditions; cited from earlier work.
For data set [2], the system named is NALM6 cell lines. Details: method as in PMID 28810515. As to conditions: NALM6, general culture conditions; cited from earlier work.
Data set [3] has as its system human pancreatic carcinoma PANC-1 cells. The experiment in a line: Cytotoxicity against PANC-1 cells under glucose-deficient or general culture conditions (WST-8). It is filed as cell-based. The following applies: for IC50: Homo sapiens, 12 h treatment, WST-8. The protocol:
PANC-1 cells were maintained in DMEM supplemented with heat-inactivated 10% FBS and kanamycin (50 µg/mL) and grown at 37 °C in a 5% CO2 atmosphere. […] The general culture medium—that is, basal medium containing 10% FBS and […] glucose (final concentration, 25 mM)—was used for comparison. The assay was performed as previously described. Briefly, PANC-1 cells (1 × 10^4 cells/100 µL in 96-well plastic plates) were preincubated in DMEM containing 10% FBS for 24 h. The medium was then changed with either the general glucose medium or glucose-deficient medium to induce adaption to nutrient starvation. After 12-h incubation, serially diluted samples were added to the media. Then, the cells were incubated for an additional 12 h at 37 °C in a 5% CO2 atmosphere. Cell proliferation was identified using WST-8. The IC50 values were determined by linear interpolation of the growth inhibition curve. We assessed the selectivity of the antiproliferative activity (S.I.) on the basis of the difference in the IC50 values for the general culture and glucose-deficient media.
For orientation: Tetrazolium dyes change colour on reduction, which living cells bring about.

The test system of data set [4] is nasopharyngeal carcinoma cells. Details: method as in PMID 27694907. The following applies: general culture conditions; cited from earlier work.
For data set [5], the system named is breast cancer cells. Also on record: method as in PMID 25574462. The following applies: general culture conditions; cited from earlier work.
Data set [6] concerns U937 cell lines. Details: method as in PMID 20796195. As to conditions: U937, general culture conditions; cited from earlier work.
The subject of data set [7] is K562 cell lines. Details: method as in PMID 26479318. As to conditions: K562, general culture conditions; cited from earlier work.
Data set [8] concerns glucose-6-phosphate dehydrogenase. Also on record: method as in PMID 26479318. As to conditions: against breast cancer cells; cited from earlier work.
Data set [9] has as its system CCRF-ADR5000 cells. Also on record: method as in PMID 29707146. As to conditions: CCRF-ADR5000, general culture conditions; cited from earlier work.
The test system of data set [10] is SUPB15 cell lines. Details: method as in PMID 28810515. As to conditions: SUPB15, general culture conditions; cited from earlier work.
Data set [11] has as its system colon cancer cells. Details: method as in PMID 26707141, PMID 20837130. The following applies: general culture conditions; cited from earlier work.
The subject of data set [12] is hepatocellular carcinoma cells. Also on record: method as in PMID 28042511, PMID 29710489. As to conditions: general culture conditions; cited from earlier work.
Data set [13] concerns cervical carcinoma cells. Details: method as in PMID 24071573. The following applies: general culture conditions; cited from earlier work.
The subject of data set [14] is HL-60 cells. Also on record: method as in PMID 18758101. As to conditions: cited from earlier work.
In data set [15] the target is Mitochondrial complex V (F1F0 ATP synthase) (Bos taurus, UniProt P00829+P00847+P19483+P32876). The experiment in a line: MitoCheck Complex Activity Assay, complex V. It is filed as biochemical, bovine. The protocol:
(§1) The inhibitory activity of compound 1 on the mitochondrial electron transport chain (complexes I–V) was analyzed using MitoCheck Complex Activity Assay kits (Cayman Chemical) following the manufacturer’s instructions. The kits measured the enzymatic activity of each complex derived from bovine heart mitochondria in the following systems: Mitochondrial complex I (NADH oxidase/coenzyme Q reductase) activity was determined by measuring the decrease in NADH oxidation, which is reflected by a decrease in absorbance at 340 nm. Mitochondrial complex II (succinate dehydrogenase/coenzyme Q reductase) activity was assessed on the basis of the reduction rate of 2, 6-dichlorophenolindophenol (protonated by reduced coenzyme Q), which is reflected by a decrease in absorbance at 600 nm. Mitochondrial complex III (coenzyme Q cytochrome c oxidoreductase) activity was determined on the basis of the cytochrome c reduction rate, which is reflected by an increase in absorbance at 550 nm. Mitochondrial complex IV (cytochrome c oxidase) activity was determined by measuring the cytochrome c oxidation rate, which is reflected by a decrease in absorbance at 550 nm. Mitochondrial complex V (F1F0 ATP synthase) activity was determined by the NADH oxidation rate, which can be monitored at 340 nm.

In data set [16] the test system is A-549 cells. Also on record: method as in PMID 18758101. The following applies: cited from earlier work.
In data set [17] the target is Mitochondrial complex I (NADH oxidase/coenzyme Q reductase) (Bos taurus, UniProt P03887+P17694+P25708+P42026). Put plainly: MitoCheck Complex Activity Assay, complex I. Type of data set: biochemical, bovine. On the procedure:
as §1

For data set [18], the system named is SF-268 cells. Also on record: method as in PMID 18758101. As to conditions: 100 µg/mL (352 µM); cited from earlier work.
Data set [19] has as its system NCI-H460 cells. Also on record: method as in PMID 18758101. As to conditions: 100 µg/mL (352 µM); cited from earlier work.
Data set [20] has as its system P-388 cells. Details: method as in PMID 18758101. The following applies: cited from earlier work.
Data set [21] deals with K-562 cells. Also on record: method as in PMID 18758101. As to conditions: cited from earlier work.
In data set [22] the test system is MCF-7 cells. Details: method as in PMID 18758101. The following applies: 100 µg/mL (352 µM); cited from earlier work.
[23] abbreviates: PANC-1, glucose-deficient medium, 12 h adaptation.
The mark [24] stands for this setting: conversion of 10 µg/mL, read-out: IC50.

A word on the IC50: it is the concentration at which inhibition is half-maximal. With `COc1cc(O)c2c(c1)C(=O)c1cc(C)cc(O)c1C2=O` [Compound 1, physcion], the IC50 in data set [1] is 15.1 to 35.1 µM; in [2], 5 µM; in [3] (PANC-1, general glucose medium), 1017 ± 0.05 µM; in [3] (setting [23]), 6 ± 0.1 µM; in data set [4], 20 µM; in [5] it was 45.4 µM. The half-inhibitory concentration (IC50) in [6] is 27.9 µM; in data set [7], 12.5 µM; in [9], 74.8 µM; in data set [10] it was 5 µM; in [11] it was 10 to 50 µM; in data set [12] it was 10 µM. In addition, the IC50 in [13] was 100 µM. In data set [3] (difference in IC50 values for general culture and glucose-deficient media), the “S.I. (selectivity index)” value is 169.5. In data set [8], the “inhibition of glucose-6-phosphate dehydrogenase” value is given as “specific inhibitor”.
What is called inhibition is the change of the read-out against control, counted positive when it falls. For the compound `C/C=C/C=C/c1cc2c(C=O)c(O)c(CC=C(C)C)cc2o1` [Compound 2, 2-(2′,3-epoxy-1′,3′,5′-heptatrienyl)-6-hydroxy-5-(3-methyl-2-butenyl) benzaldehyde], the half-maximal inhibitory concentration (IC50) entry in data set [14] is “higher than 10 µg/mL”; in data set [14] (setting [24]), above 35.2 µM; in [15] (bovine heart mitochondria), above 100 µM; in data set [16] it was “higher than 10 µg/mL”; in [16] (setting [24]), above 35.2 µM; in [17] (bovine heart mitochondria) it was above 100 µM. Further, the IC50 is 859 ± 1 µM in data set [3] (PANC-1, general glucose medium); 1.7 ± 0.05 µM in data set [3] (setting [23]); “higher than 10 µg/mL” in data set [20]; above 35.2 µM in data set [20] (setting [24]); “higher than 10 µg/mL” in data set [21]; above 35.2 µM in data set [21] (setting [24]). Besides, the “inhibition of complex V” value in data set [15] (100 µM) is listed as “not inhibited”. The compound also registered an inhibition at 100 µM in data set [17] (100 µM) of 18%. Further, the cytotoxic effect result in data set [18], in [19] and in data set [22] was “more than 90%” throughout. Moreover, the “selective growth-inhibitory activity under glucose-deficient vs general culture conditions” value in data set [3] (PANC-1) is given as 505 fold.
